Laboratory results published in patent publication US20200392116A1, “SUBSTITUTED HETEROCYCLES AS c-MYC TARGETING AGENTS” (NORTHWESTERN UNIVERSITY, priority 2019, published 2020).
Like-named read-outs stand apart in the source and are kept apart here.

Key:
[1] = system: MYC transcriptional activity (c-Myc E-box-luciferase reporter, MycCap cells); test: MYC E-box luciferase reporter assay; type: cell-based; conditions: Mus musculus, Myc-CaP
Description: To test the compounds, we evaluated the in silico hits in a MYC E-Box luciferase reporter assay to measure the effects of these compounds (referred to as Min-1 to Min-32) on MYC transcriptional activity. […] (See FIG. 2).
MycCap cells stably expressing luciferase with CMV promoter (MycCap-luc) or c-Myc E-box-luciferase reporter (MycCap Ebox-luc) were plated at 10000 cells per well in 96 well white-wall plate. Serial dilutions of 361 were treated next day. At 4 hours of treatment, luminescence signal was determined immediately after adding 150 μg/ml of Luciferin to the well. (See FIG. 12).

CMV reporter = CMV reporter assay (control reporter beside the Ebox reporter); type: cell-based
[2] = class symbols, read-out: Ebox reporter: IC50
[3] = given as numeric bound, read-out: Ebox reporter: IC50
[4] = class symbols, read-out: Eboc reporter IC50

| SMILES | IC50 [1, 2] [µM] | IC50 (CMV reporter) [µM] | IC50 [1, 3] [µM] | IC50 [1, 4] [µM] | IC50 (CMV reporter; class symbols) [µM] |
| --- | --- | --- | --- | --- | --- |
| Oc1c(-c2cc(C(F)(F)F)n[nH]2)cc(Cl)c(OCc2ccc(Cl)cc2)c1-c1ccc(Cl)c(C(F)(F)F)c1 [NUCC-0202649] | < 5 | > 50 | – | – | – |
| Cn1nc(-c2ccc(OC3CCNCC3)c(-c3ccc(Cl)c(C(F)(F)F)c3)c2O)cc1C(F)(F)F [NUCC-0202432] | 10 to 50 | 28 | – | – | – |
| Cn1nc(C(F)(F)F)cc1-c1ccc(N(Cc2ccc(Cl)cc2)C(=O)c2ccc(F)cc2)cc1O [NUCC-0202711] | 5 to 10 | > 50 | – | – | – |
| Cn1nc(C(F)(F)F)cc1-c1ccc(OC2CCOCC2)c(-c2ccc(Cl)c(C(F)(F)F)c2)c1O [NUCC-0202427] | 10 to 50 | > 50 | – | – | – |
| CN(C)C(=O)c1cc(-c2ccc(OCc3ccc(Cl)cc3)c(-c3ccc(Cl)c(C(F)(F)F)c3)c2O)[nH]n1 [NUCC-0202523] | – | > 50 | > 50 | – | – |
| Cn1nc(-c2ccc(N(Cc3ccc(Cl)cc3)C(=O)c3ccc(F)cc3)cc2O)cc1C(F)(F)F [NUCC-0202701] | – | > 50 | > 50 | – | – |
| Cn1nc(-c2ccc(N(Cc3ccc(Cl)cc3)C(=O)c3ccc(F)c(F)c3)cc2O)cc1C(F)(F)F [NUCC-0202707] | – | > 50 | > 50 | – | – |
| Cn1nc(-c2ccc(N(Cc3ccc(Cl)cc3)C(=O)c3ccc(Cl)cc3C(F)(F)F)cc2O)cc1C(F)(F)F [NUCC-0202710] | – | > 50 | > 50 | – | – |
| COc1cccc(C(=O)N(Cc2ccc(Cl)cc2)c2ccc(-c3cc(C(F)(F)F)n(C)n3)c(O)c2)c1 [NUCC-0202695] | – | > 50 | > 50 | – | – |
| Cc1cc(-c2ccc(OCc3ccc(Cl)cc3)c(-c3ccc(Cl)c(C(F)(F)F)c3)c2O)nn1C [NUCC-0202534] | – | > 50 | > 50 | – | – |
| Cn1nc(C(F)(F)F)cc1-c1cnc(OCc2ccc(Cl)cc2)c(-c2ccc(Cl)c(C(F)(F)F)c2)c1O [NUCC-0202686] | < 5 | 31 | – | – | – |
| CC(Oc1ccc(-c2cc(C(F)(F)F)nn2C)c(O)c1-c1ccc(Cl)c(C(F)(F)F)c1)c1ccc(Cl)cc1 (stereo not shown) [NUCC-0202418] | 5 to 10 | > 50 | – | – | – |
| Cn1nc(C(=O)O)cc1-c1ccc(OCc2ccc(Cl)cc2)c(-c2ccc(Cl)c(C(F)(F)F)c2)c1O [NUCC-0202524] | 10 to 50 | > 50 | – | – | – |
| COc1c(C(F)(F)F)nn(C)c1-c1ccc(OCc2ccc(Cl)cc2)cc1O [NUCC-0202651] | 5 to 10 | > 50 | – | – | – |
| CCOC(=O)c1cc(-c2ccc(OCc3ccc(Cl)cc3)c(-c3ccc(Cl)c(C(F)(F)F)c3)c2O)[nH]n1 [NUCC-0202530] | 10 to 50 | > 50 | – | – | – |
| Oc1cc(-c2ccc(OCc3ccc(Cl)cc3)c(-c3ccc(Cl)c(C(F)(F)F)c3)c2O)[nH]n1 [NUCC-0202535] | 10 to 50 | > 50 | – | – | – |
| Oc1c(-c2cc(C(F)(F)F)n[nH]2)c(Cl)cc(OCc2ccc(Cl)cc2)c1-c1ccc(Cl)c(C(F)(F)F)c1 [NUCC-0202986] | – | – | – | < 5 | 10 to 50 |
| Cn1nc(C(F)(F)F)cc1-c1cc(Cl)c(OCc2ccc(Cl)cc2)c(-c2ccc(Cl)c(C(F)(F)F)c2)c1O [NUCC-0202648] | < 5 | > 50 | – | – | – |
| Cn1nc(C(F)(F)F)cc1-c1ccc(OC2CCNCC2)c(-c2ccc(Cl)c(C(F)(F)F)c2)c1O [NUCC-0202431] | 10 to 50 | 39 | – | – | – |

| SMILES | IC50 [1, 2] [µM] | IC50 (CMV reporter) [µM] | IC50 [1, 3] [µM] | IC50 [1, 4] [µM] | IC50 (CMV reporter; class symbols) [µM] |
| --- | --- | --- | --- | --- | --- |
| COc1ccc(-c2cc(C(F)(F)F)n(C)n2)c(O)c1-c1ccc(Cl)c(C(F)(F)F)c1 [NUCC-0202430] | – | > 50 | > 50 | – | – |
| Cn1nc(C(F)(F)F)cc1-c1ccc(N(Cc2ccc(Cl)cc2)C(=O)c2cncc(F)c2)cc1O [NUCC-0202692] | 5 to 10 | > 50 | – | – | – |
| Cn1nc(C(F)(F)F)cc1-c1ccc(OCc2ccc(Cl)cc2)c(-c2ccc(Cl)c(C(F)(F)F)c2)c1O [NUCC-0202538] | – | > 50 | > 50 | – | – |
| COCCOc1ccc(-c2cc(C(F)(F)F)nn2C)c(O)c1-c1ccc(Cl)c(C(F)(F)F)c1 [NUCC-0202425] | 10 to 50 | > 50 | – | – | – |
| Cc1cc(-c2ccc(OCc3ccc(Cl)cc3)c(-c3ccc(Cl)c(C(F)(F)F)c3)c2O)n(C)n1 [NUCC-0202533] | 10 to 50 | > 50 | – | – | – |
| Cn1nc(C(F)(F)F)cc1-c1ccc(N(Cc2ccc(Cl)cc2)C(=O)c2cncc(C#N)c2)cc1O [NUCC-0202724] | 5 to 10 | > 50 | – | – | – |
| Cn1nc(-c2ccc(N(Cc3ccc(Cl)cc3)C(=O)c3ccc4nccn4c3)cc2O)cc1C(F)(F)F [NUCC-0202725] | 10 to 50 | > 50 | – | – | – |
| O=C(c1ccc(C(F)(F)F)c(Cl)c1)N(Cc1ccc(Cl)cc1)c1ccc(-c2cc(C(F)(F)F)n[nH]2)c(O)c1 [NUCC-0202434] | < 5 | 40 | – | – | – |
| COc1cccc(C(=O)N(Cc2ccc(Cl)cc2)c2ccc(-c3cc(C(F)(F)F)nn3C)c(O)c2)c1 [NUCC-0202698] | 5 to 10 | > 50 | – | – | – |
| Cn1nc(C(F)(F)F)cc1-c1ccc(N(Cc2ccc(Cl)cc2)C(=O)c2ccccc2F)cc1O [NUCC-0202715] | 5 to 10 | > 50 | – | – | – |
| Cn1nc(C(N)=O)cc1-c1ccc(OCc2ccc(Cl)cc2)c(-c2ccc(Cl)c(C(F)(F)F)c2)c1O [NUCC-0202526] | 10 to 50 | > 50 | – | – | – |
| Cn1nc(C(F)(F)F)cc1-c1c(Cl)cc(OCc2ccc(Cl)cc2)c(-c2ccc(Cl)c(C(F)(F)F)c2)c1O [NUCC-0202987] | – | – | – | < 5 | > 50 |
| Cn1nc(-c2ccc(N(Cc3ccc(Cl)cc3)C(=O)c3ccccc3C(F)(F)F)cc2O)cc1C(F)(F)F [NUCC-0202719] | – | > 50 | > 50 | – | – |
| Cn1nc(C(F)(F)F)cc1-c1ccc(N(Cc2ccc(Cl)cc2)C(=O)c2ccc(Cl)cc2C(F)(F)F)cc1O [NUCC-0202709] | 5 to 10 | > 50 | – | – | – |
| Cn1nc(C(F)(F)F)cc1-c1ccc(N(Cc2ccc(Cl)cc2)C(=O)c2ccccc2Cl)cc1O [NUCC-0202712] | 10 to 50 | > 50 | – | – | – |
| Oc1c(-c2cc(C(F)(F)F)n[nH]2)cc(F)c(OCc2ccc(Cl)cc2)c1-c1ccc(Cl)c(C(F)(F)F)c1 [NUCC-0202687] | < 5 | > 50 | – | – | – |
| COc1ccc(-c2cc(C(F)(F)F)nn2C)c(O)c1-c1ccc(Cl)c(C(F)(F)F)c1 [NUCC-0202429] | < 5 | > 50 | – | – | – |
| Cn1nc(-c2ccc(N(Cc3ccc(Cl)cc3)C(=O)c3ccccc3F)cc2O)cc1C(F)(F)F [NUCC-0202716] | – | > 50 | > 50 | – | – |
| Cn1nc(C(F)(F)F)cc1-c1ccc(N(Cc2ccc(Cl)cc2)C(=O)c2ccc(C(F)(F)F)cc2)cc1O [NUCC-0202713] | 5 to 10 | > 50 | – | – | – |

| SMILES | IC50 [1, 2] [µM] | IC50 (CMV reporter) [µM] | IC50 [1, 3] [µM] | IC50 [1, 4] [µM] | IC50 (CMV reporter; class symbols) [µM] |
| --- | --- | --- | --- | --- | --- |
| Oc1cc(CNc2ccc(Cl)c(C(F)(F)F)c2)ccc1-c1cc(C(F)(F)F)n[nH]1 [NUCC-0202993] | – | – | – | 5 to 10 | 10 to 50 |
| CNC(=O)c1cc(-c2ccc(OCc3ccc(Cl)cc3)c(-c3ccc(Cl)c(C(F)(F)F)c3)c2O)n(C)n1 [NUCC-0202635] | 10 to 50 | > 50 | – | – | – |
| Cn1nc(-c2ccc(N(Cc3ccc(Cl)cc3)C(=O)c3ccc(Cl)cc3)cc2O)cc1C(F)(F)F [NUCC-0202694] | – | > 50 | > 50 | – | – |
| Cn1nc(-c2ccc(OCc3ccc(Cl)cc3)cc2O)c(Oc2ccc(Cl)c(F)c2)c1C(F)(F)F [NUCC-0202643] | < 5 | > 50 | – | – | – |
| Cn1nc(-c2ccc(N(Cc3ccc(Cl)cc3)C(=O)c3cncc(F)c3)cc2O)cc1C(F)(F)F [NUCC-0202697] | – | > 50 | > 50 | – | – |
| Cn1nc(C(F)(F)F)cc1-c1ccc(NC(=O)c2ccc(Cl)c(C(F)(F)F)c2)cc1O [NUCC-0202690] | < 5 | > 50 | – | – | – |
| Cn1nc(C(F)(F)F)cc1-c1ccc(C(=O)Nc2ccc(Cl)c(C(F)(F)F)c2)cc1O [NUCC-0202984] | – | – | – | < 5 | 10 to 50 |
| Cn1nc(-c2ccc(OCc3ccc(Cl)cc3)c(-c3ccc(Cl)c(C(F)(F)F)c3)c2O)cc1C(=O)O [NUCC-0202525] | 10 to 50 | > 50 | – | – | – |
| Cn1nc(-c2ccc(N(Cc3ccc(Cl)cc3)C(=O)c3ccccc3Cl)cc2O)cc1C(F)(F)F [NUCC-0202702] | – | > 50 | > 50 | – | – |
| Cn1nc(C(F)(F)F)cc1-c1ccc(CNc2ccc(Cl)cc2)c(-c2ccc(Cl)c(C(F)(F)F)c2)c1O [NUCC-0202414] | 5 to 10 | > 50 | – | – | – |
| CN(C)C(=O)c1cc(-c2ccc(OCc3ccc(Cl)cc3)c(-c3ccc(Cl)c(C(F)(F)F)c3)c2O)nn1C [NUCC-0202531] | – | > 50 | > 50 | – | – |
| CNC(=O)c1cc(-c2ccc(OCc3ccc(Cl)cc3)c(-c3ccc(Cl)c(C(F)(F)F)c3)c2O)[nH]n1 [NUCC-0202522] | 10 to 50 | 43 | – | – | – |
| Cn1nc(C(F)(F)F)cc1-c1ccc(N(Cc2ccc(Cl)cc2)C(=O)c2ccc3nccn3c2)cc1O [NUCC-0202693] | < 5 | > 50 | – | – | – |
| Cn1nc(C(F)(F)F)cc1-c1ccc(N(Cc2ccc(Cl)cc2)C(=O)c2ccc(C(F)(F)F)c(Cl)c2)cc1O [NUCC-0202423] | < 5 | > 50 | – | – | – |
| CN(C(=O)c1ccc(-c2cc(C(F)(F)F)nn2C)c(O)c1)c1ccc(Cl)c(C(F)(F)F)c1 [NUCC-0202990] | – | – | – | 10 to 50 | > 50 |
| Oc1c(-c2cc(C(F)(F)F)n[nH]2)ccc(OCc2ccc(Cl)cc2)c1Oc1ccc(F)cn1 [NUCC-0202435] | 10 to 50 | > 50 | – | – | – |
| Cn1nc(-c2ccc(NC(=O)c3ccc(Cl)c(C(F)(F)F)c3)cc2O)cc1C(F)(F)F [NUCC-0202691] | – | > 50 | > 50 | – | – |
| Oc1cc(OCc2ccc(Cl)cc2)ccc1-c1[nH]nc(C(F)(F)F)c1Oc1ccc(Cl)c(F)c1 [NUCC-0202536] | 5 to 10 | 44 | – | – | – |
